Measured values taken from patent publication US7098343B2, “Compound” (Sterix, Limited, priority 2001, dated 2006).
Values belong to the molecule of their own block, whether it stands above or below them.

Key:
steroid sulphatase [1] = biological target: T1, steroid sulphatase (Homo sapiens, UniProt P08842); conditions: cited from earlier work
T1 sequence (P08842 22-583): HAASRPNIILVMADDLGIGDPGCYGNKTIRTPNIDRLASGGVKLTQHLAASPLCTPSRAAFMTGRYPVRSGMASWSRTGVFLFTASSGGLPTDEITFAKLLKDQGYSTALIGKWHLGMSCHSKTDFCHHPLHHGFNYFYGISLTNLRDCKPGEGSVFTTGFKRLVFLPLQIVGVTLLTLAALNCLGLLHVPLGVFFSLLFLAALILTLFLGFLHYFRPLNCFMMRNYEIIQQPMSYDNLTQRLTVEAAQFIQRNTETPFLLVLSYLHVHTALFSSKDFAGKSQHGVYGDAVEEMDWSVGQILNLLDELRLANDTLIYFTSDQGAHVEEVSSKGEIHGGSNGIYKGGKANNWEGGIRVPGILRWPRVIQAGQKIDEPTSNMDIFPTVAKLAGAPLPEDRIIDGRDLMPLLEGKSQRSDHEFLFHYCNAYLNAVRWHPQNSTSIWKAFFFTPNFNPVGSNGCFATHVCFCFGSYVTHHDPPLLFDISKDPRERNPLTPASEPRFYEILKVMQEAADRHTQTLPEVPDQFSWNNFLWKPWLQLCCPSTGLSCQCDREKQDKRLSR

uterus = conditions: cited from earlier work
aromatase = biological target: T2, aromatase (Homo sapiens, UniProt P11511); assay: Aromatase activity in JEG3 choriocarcinoma cells (Protocol 6); assay type: cell-based
T2 construct: Aromatase activity is measured in JEG3 choriocarcinoma cells, obtained from the ATCC; host or cells: JEG3 choriocarcinoma cells (intact monolayers)
T2 sequence (P11511 1-503): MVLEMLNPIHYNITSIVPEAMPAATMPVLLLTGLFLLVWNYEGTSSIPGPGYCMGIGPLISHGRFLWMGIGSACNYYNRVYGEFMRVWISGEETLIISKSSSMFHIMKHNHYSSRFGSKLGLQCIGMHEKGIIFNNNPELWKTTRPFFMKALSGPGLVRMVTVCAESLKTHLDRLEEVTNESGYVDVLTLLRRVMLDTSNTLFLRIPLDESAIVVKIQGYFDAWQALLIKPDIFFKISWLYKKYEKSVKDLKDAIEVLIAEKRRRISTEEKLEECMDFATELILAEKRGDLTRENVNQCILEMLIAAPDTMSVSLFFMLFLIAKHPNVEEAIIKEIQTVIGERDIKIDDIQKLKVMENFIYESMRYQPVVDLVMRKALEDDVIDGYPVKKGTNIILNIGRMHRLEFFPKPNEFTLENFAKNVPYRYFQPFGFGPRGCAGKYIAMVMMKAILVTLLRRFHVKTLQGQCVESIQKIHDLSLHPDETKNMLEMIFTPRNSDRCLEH

E1-STS = biological target: T3, E1-STS (Homo sapiens, UniProt P08842); conditions: 0.1 nM; cited from earlier work
T3 construct: host or cells: intact MCF-7 cells (endogenous enzyme)
T3 sequence (P08842 22-583): T1 sequence (P08842 22-583)

rat liver DHA-STS = biological target: T4, rat liver DHA-STS (Rattus norvegicus, UniProt P15589); conditions: administered orally or subcutaneously; cited from earlier work
T4 construct: host or cells: rat liver after oral or subcutaneous dosing
T4 sequence (P15589 20-577): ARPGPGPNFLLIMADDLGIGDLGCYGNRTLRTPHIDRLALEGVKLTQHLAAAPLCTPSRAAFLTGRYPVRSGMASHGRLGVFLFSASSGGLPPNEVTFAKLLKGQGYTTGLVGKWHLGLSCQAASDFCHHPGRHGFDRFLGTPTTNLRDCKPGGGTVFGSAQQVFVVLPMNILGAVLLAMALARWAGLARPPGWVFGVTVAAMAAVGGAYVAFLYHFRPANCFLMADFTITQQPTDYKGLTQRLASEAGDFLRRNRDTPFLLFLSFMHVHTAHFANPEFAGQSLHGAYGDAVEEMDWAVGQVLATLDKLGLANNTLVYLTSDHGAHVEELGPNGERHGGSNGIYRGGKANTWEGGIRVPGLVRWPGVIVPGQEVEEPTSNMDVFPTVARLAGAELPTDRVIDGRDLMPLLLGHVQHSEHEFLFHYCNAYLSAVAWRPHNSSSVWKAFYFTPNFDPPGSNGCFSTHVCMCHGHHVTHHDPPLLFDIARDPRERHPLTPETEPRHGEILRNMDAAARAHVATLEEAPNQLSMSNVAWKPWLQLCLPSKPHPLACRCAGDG

rat liver E1-STS = biological target: T5, rat liver E1-STS (Rattus norvegicus, UniProt P15589); conditions: administered orally or subcutaneously; cited from earlier work
T5 construct: host or cells: rat liver after oral or subcutaneous dosing
T5 sequence (P15589 20-577): T4 sequence (P15589 20-577)

steroid sulphatase [2] = biological target: T1, steroid sulphatase; assay: Inhibition of steroid sulphatase activity in placental microsomes (Protocol 2); assay type: biochemical; design: host or cells: JEG3 choriocarcinoma cells (intact monolayers); conditions: read-out: SULPHATASE % inhibition at 10 μM in placental microsomes
Protocol: Inhibition of Steroid Sulphatase Activity in Placental Microsomes
Sulphatase-positive human placenta from normal term pregnancies are thoroughly minced with scissors and washed once with cold phosphate buffer (pH 7.4, 50 mM) then re-suspended in cold phosphate buffer (5 ml/g tissue). Homogenisation is accomplished with an Ultra-Turrax homogeniser, using three 10 second bursts separated by 2 minute cooling periods in ice. Nuclei and cell debris are removed by centrifuging (4° C.) at 2000 g for 30 minutes and portions (2 ml) of the supernatant are stored at […] The protein concentration of the supernatants is determined by the method of Bradford (Anal. Biochem., 72, 248-254 (1976)).
Incubations (1 ml) are carried out using a protein concentration of […], substrate concentration of […] [6,7-3H]oestrone-3-sulphate (specific activity 60 Ci/mmol from New England Nuclear, Boston, Mass., U.S.A.) and an incubation time of 20 minutes at 37° C. […] A portion (2 ml) of the organic phase was removed, evaporated and the 3H and 14C content of the residue determined by scintillation spectrometry. The mass of oestrone-3-sulphate hydrolysed is calculated from the 3H counts obtained (corrected for the volumes of the medium and organic phase used, and for recovery of [14C]oestrone added) and the specific activity of the substrate.

Molecule: COc1cc2c(cc1OS(N)(=O)=O)CC[C@@H]1[C@@H]2CC[C@]2(C)C(=O)CC[C@@H]12 [2-methoxyoestrone-3-O-sulphamate]
- steroid sulphatase inhibition relative to EMATE, in words (steroid sulphatase [1]): equipotent with EMATE
- oestrogenicity, in words (uterus; rat, in vivo): devoid of oestrogenicity

- AROMATASE inhibition, in words (aromatase): (No inhibition seen)
Molecule: NS(=O)(=O)Oc1ccc(-c2cc(=O)c3cc(OS(N)(=O)=O)ccc3o2)cc1 [Compound H342F1]

Molecule: CC12CCC3c4ccc(OS(N)(=O)=O)cc4CCC3C1CCC2=O (centres unmarked) [EMATE, oestrone-3-O-sulphamate]
- inhibition of E1-STS activity in intact MCF-7 cells (E1-STS): more than 99%
- inhibition of rat liver DHA-STS activity (rat liver DHA-STS): 99%
- inhibition of rat liver E1-STS activity (rat liver E1-STS): 99%
- oral uterotrophic activity relative to estradiol (uterus; rats, oral): 100 times

- melting point: 228 to 230 °C
Molecule: N#Cc1ccc(N(Cc2ccc(O)cc2)n2cnnc2)cc1 [STX265, 4-[(4-Hydroxylbenzyl)-[1,2,4]triazol-4-ylamino]benzonitrile]

- inhibition at 10 µM (steroid sulphatase [2]): 14%
Molecule: NS(=O)(=O)Oc1ccc(Cn2cncn2)cc1 [STX270, Sulfamic Acid 4-[1,2,4]triazol-1-ylmethylphenyl ester]

Molecule: oestrone-3-N-sulphamate
- steroid sulphatase inhibition relative to EMATE, in words (steroid sulphatase [1]): weaker non-time-dependent inactivators

Molecule: oestrone-3-S-sulphamate
- steroid sulphatase inhibition relative to EMATE, in words (steroid sulphatase [1]): weaker non-time-dependent inactivators
